# Laboratory results: US4740501A (priority 1985, dated 1988)
# Where two headings read alike, the source gives them in different places.
# What was measured:
# [1] = test system: B-95-8 B-lymphoma; test: Tumor cell survival (trypan blue), continuous exposure; assay type: cell-based, Marmorset
# [2] = test system: L-1210 leukemia cells; test: Bioassay of tumorigenicity of in vitro treated tumor cells in syngeneic hosts; assay type: in vivo; conditions: BDf1 mice surviving 45 days
# [3] = test system: L1210 leukemia cells; test: Tumorigenicity of in vitro treated leukemia cells in BDF1 recipients; assay type: in vivo, BDF1 mice; conditions: for MST: L1210, control 10
# Protocol: All in vitro PTT.119 and L-PAM treatment of cells were carried out at 37° C. in the appropriate complete growth media containing 10% or 18% sera. L1210, L1210/L-PAM and P388/L-PAM cell suspensions of 1×10^6 cells/ml were subjected to a single 15, 30 or 60 min pulse exposure to 3.75, 7.5 and 15 uM PTT.119 or L-PAM. Following treatment, media were removed by pelleting the cells at 200×g for 9 min at 5° C. Cells were then gently washed twice with fresh growth media and finally resuspended in RPMI-1630 medium with 10% FBS for in vitro cultures.
# Suspensions of PTT.119 or L-PAM treated cells, and control leukemia cells were adjusted to 1×10^7 cells/ml based on tumor cell concentrations prior to drug exposure. Syngeneic female BDF1 (BALB/c×DBA/2)f, mice weighing 20 to 26 g received intraperitoneal injections of 1×10^6 cells. Mice were monitored daily throughout the 45 day examination period and were autopsied at the time of death.
# [4] = test system: MMTV proteins; test: Intracellular MMTV polypeptides (immune precipitation, NaDodSO4-PAGE); assay type: cell-based, mouse; conditions: for activity at 15 µM: Mus musculus, control 100, read-out: Relative level of MMTV-associated radioactivity (%): Total MMTV Protein
# Protocol: Intracellular MMTV proteins were identified in monolayer cells after 24 or 48 hour exposure to 15 uM PTT.119. Cultures were labeled with 25 uCi/ml of (^3 H)-leucine for the first 24 hours and were then doubly labeled with (^35 S)-methionine when the spent media were replenished. The relative rates of MMTV polypeptide synthesis were determined using parallel cultures continuously-treated with PTT.119 and pulse labeled for 15 minutes with ^35 S-methionine. Following labeling, the cells were washed twice in cold 0.01M phosphate-buffered saline, pH 7.5, and a solution of protease inhibitors added to yield a final concentration of 1 uM pepstatin, 10 ug soybean trypsin inhibitor/ml, and 1 mM N-ethyl maleimide. Cells were then disrupted in 0.05M phosphate buffer containing 0.1M NaCl and 0.1% Triton X-100, pH 7.5 (Pi/NaCl/Triton). Cells were scraped from the substrate and lysis completed by passing the suspensions through a 27 gauge needle five times. Nuclei were removed by centrifugation at 600×g for 10 minutes at 4° C. and 100 ul aliquots of the supernatants mixed with 10 ul preimmune rabbit sera and 50 ul of 10% […] formalin-fixed and heat-killed.
# Following a 15 minute incubation at 26° C., the Staphlococcus aureus (Cowan strain) immunoabsorbent was removed by centrifugation at 10,000×g for 1 minute in a Beckman microfuge. Supernatants (100 ul) were sequentially incubated at 26° C. with 33 ul of rabbit anti-MMTV antisera for 25 minutes and 150 ul of 10% S. aureus for 15 minutes. S. aureus was then pelleted and the precipitate washed five times in Pi/NaCl/Triton. Samples were finally resuspended in 20 ul of 1% NaDodSO4 /2-mercaptoethanol, heated for 1 minute at 100° C. to release MMTV proteins, and centrifuged to remove S. aureus. Supernatants were then subjected to NaDodSO4 -PAGE. Samples were disrupted in 1% NaDodSO4 and 1% B-mercaptoethanol at 100° C. for 1 minute electrophoresed on 10-20% polyacrylamide gradient slab gels using a discontinuous buffer system. Electrophoresis of immune precipitates from cell lysates was carried out in a similar manner using 7.5-15% polyacrylamide gradients. Mr of MMTV-related polypeptides were determined by coelectrophoresis of [^14 C]-protein standards (Mr 30,000 to 50,000 Da; New England Nuclear). Radioactivity was determined and the levels associated with MMTV polypeptide peaks quantitated using a generalized curve-fit computer program.
# [5] = test system: L1210/L-PAM leukemia cells; parameters: species or system BDF1 mice; conditions: mouse, in vivo
# [6] = test system: L1210 leukemia cells
# [7] = test system: Hairy cell leukemia; test: Survival of fresh human leukemic cells, continuous exposure; assay type: cell-based
# [8] = test system: 5-78 T-lymphoma; test: Tumor cell survival (trypan blue), continuous exposure; assay type: cell-based, Rabbit
# [9] = test system: L1210DDP; test: cells; assay type: cell-based
# [10] = test system: B-16 melanoma cell layers; test: Tumor cell survival (trypan blue), continuous exposure; assay type: cell-based, Mouse
compound,measurement,setting,value
"CCOC(=O)[C@H](CCSC)NC(=O)[C@H](Cc1cccc(N(CCCl)CCCl)c1)NC(=O)[C@@H](N)Cc1ccc(F)cc1.Cl [PTT.119, 3-(p-fluorophenyl)-L-alanyl-3-[m-bis(2-chloroethyl)aminophenyl]-L-alanyl-L-methionine ethyl ester hydrochloride]",% tumor cell survival,"[1]; 10 ug/ml, 1 hr",100%
same,% tumor cell survival,"[1]; 10 ug/ml, 4 hr",100%
same,% tumor cell survival,"[1]; 10 ug/ml, 24 hr",40%
same,% tumor cell survival,"[1]; 25 ug/ml, 1 hr",100%
same,% tumor cell survival,"[1]; 25 ug/ml, 4 hr",86%
same,% tumor cell survival,"[1]; 25 ug/ml, 8 hr",49%
same,% tumor cell survival,"[1]; 25 ug/ml, 24 hr",20%
same,% tumor cell survival,"[1]; 50 ug/ml, 1 hr",77%
same,% tumor cell survival,"[1]; 50 ug/ml, 4 hr",42%
same,% tumor cell survival,"[1]; 50 ug/ml, 8 hr",26%
same,% tumor cell survival,"[1]; 50 ug/ml, 24 hr",6%
same,protection of surviving hosts against second graft of 1000 untreated L-1210 cells,[2],did not confer protection
same,MST,"[3]; 7.5 uM, 30 min",21 days
same,MST,"[3]; 7.5 uM, 60 min",32 days
same,MST,"[3]; 15 uM, 15 min",8 days
same,mice free of tumor at end of 45-day examination period,"[3]; L1210 cells, 7.5 and 15 uM, every group",80-100%
same,levels of radiolabeled MMTV polypeptides higher than in parallel controls,[4]; 15 min pulse labelling at end of 24 and 48 hour treatment,1.5 fold
same,activity at 15 µM,"[4]; 24 hr, 15 min pulse labelling",181%
same,activity at 15 µM,"[4]; 48 hr, 15 min pulse labelling",154%
same,activity at 15 µM,"[4]; 48 hr, 24 hr labeling",125%
same,activity at 15 µM,"[4]; 24 h, 24 hr, 24 hr labeling",128%
same,tumorigenicity of L1210/L-PAM cells,[5],Complete abrogation
same,cytotoxicity lower compared to untreated L1210 cells,[6],20-30%
same,"dose response curves of L1210, L1210-T1 and L1210-T2",[6],no differences could be detected
same,viability in continuous treatment,[6],nonviable
same,viability of L1210-T1 in continuous treatment,[6],nonviable
same,% tumor cell survival,"[7]; 5 ug/ml, 1 hr",100%
same,% tumor cell survival,"[7]; 5 ug/ml, 4 hr",80%
same,% tumor cell survival,"[7]; 5 ug/ml, 24 hr",34%
same,% tumor cell survival,"[7]; 10 ug/ml, 1 hr",100%
same,% tumor cell survival,"[7]; 10 ug/ml, 4 hr",71%
same,% tumor cell survival,"[7]; 10 ug/ml, 24 hr",81%
same,% tumor cell survival,"[7]; 25 ug/ml, 1 hr",92%
same,% tumor cell survival,"[7]; 25 ug/ml, 4 hr",71%
same,% tumor cell survival,"[7]; 25 ug/ml, 24 hr",12%
same,% tumor cell survival,"[7]; 50 ug/ml, 1 hr",37%
same,% tumor cell survival,"[7]; 50 ug/ml, 4 hr",21%
same,% tumor cell survival,"[7]; 50 ug/ml, 24 hr",7%
same,% tumor cell survival,"[8]; 5 ug/ml, 1 hr",100%
same,% tumor cell survival,"[8]; 5 ug/ml, 4 hr",88%
same,% tumor cell survival,"[8]; 5 ug/ml, 24 hr",66%
same,% tumor cell survival,"[8]; 10 ug/ml, 1 hr",89%
same,% tumor cell survival,"[8]; 10 ug/ml, 4 hr",61%
same,% tumor cell survival,"[8]; 10 ug/ml, 24 hr",49%
same,% tumor cell survival,"[8]; 25 ug/ml, 1 hr",75%
same,% tumor cell survival,"[8]; 25 ug/ml, 4 hr",32%
same,% tumor cell survival,"[8]; 25 ug/ml, 8 hr",14%
same,% tumor cell survival,"[8]; 25 ug/ml, 24 hr",6%
same,% tumor cell survival,"[8]; 50 ug/ml, 1 hr",57%
same,% tumor cell survival,"[8]; 50 ug/ml, 4 hr",4%
same,% tumor cell survival,"[8]; 50 ug/ml, 24 hr",2%
same,IC50,"[9]; 24 h, read-out: T.C.D.50",525 nM
same,concentration at which remaining L1210DDP population becomes sensitive,[9]; 24 hours exposure,4 to 15 µM
same,share of L1210DDP cells highly susceptible,"[9]; doses of 1 uM, 24 hours",Approximately 60%
same,% tumor cell survival,"[10]; 5 ug/ml, 1 hr",100%
same,% tumor cell survival,"[10]; 5 ug/ml, 4 hr",100%
same,% tumor cell survival,"[10]; 5 ug/ml, 8 hr",100%
same,% tumor cell survival,"[10]; 5 ug/ml, 24 hr",74%
same,% tumor cell survival,"[10]; 10 ug/ml, 1 hr",100%
same,% tumor cell survival,"[10]; 10 ug/ml, 4 hr",100%
same,% tumor cell survival,"[10]; 10 ug/ml, 8 hr",63%
same,% tumor cell survival,"[10]; 10 ug/ml, 24 hr",64%
same,% tumor cell survival,"[10]; 25 ug/ml, 1 hr",100%
same,% tumor cell survival,"[10]; 25 ug/ml, 4 hr",100%
same,% tumor cell survival,"[10]; 25 ug/ml, 8 hr",92%
same,% tumor cell survival,"[10]; 25 ug/ml, 24 hr",60%
same,% tumor cell survival,"[10]; 50 ug/ml, 1 hr",100%
same,% tumor cell survival,"[10]; 50 ug/ml, 4 hr",100%
same,% tumor cell survival,"[10]; 50 ug/ml, 8 hr",58%
same,% tumor cell survival,"[10]; 50 ug/ml, 24 hr",33%
